Source: US20050043381A1, “Aminopyrazole compounds” (AGOURON PHARMACEUTICALS, INC., priority 2003, published 2005)

Experiments:
[1] = test system: CA-46 (lymphoma) cells; test: Whole cell checkpoint abrogation assay (CHK1 Mitotic Index ELISA); format: cell-based; settings: concentration causing 50% abrogation of the checkpoint; camptothecin + Nocodazole
Procedure: To examine the in vitro effects of CHK1 inhibitory compounds, an ELISA assay can be designed to monitor the abrogation of DNA damage-induced checkpoint control. The assay can be based on the trapping and detection of mitotic cells following DNA damage-induced arrest.
CA-46 (lymphoma) cells can be treated with a DNA damaging agent, such as camptothecin (Sigma), at 50 nM for 8 hours to induce DNA damage. The control compound or CHK1 inhibitor can be then added at increasing concentrations with Nocodazole (Sigma) at 0.1 μg/ml and plates can be incubated for 16 hours. Control cells, where only CHK1 inhibitors can be added, can be prepared as well to assure that the inhibitors alone have no effect on the cell cycle. The cells can be then harvested, washed with PBS, and crude acid extraction can be performed. Pellets can be resuspended in 80 μl of Acid Extraction Buffer (10 mM Hepes pH 7.9, 1.5 mM MgCl2, 10 mM KCl, 0.5 mM DTT, 1.5 mM PMSF, 0.4N sulfuric acid), vortexed briefly, and incubated for 30 minutes on ice. Samples can be then centrifuged and 75 μl of the supernatant can be transferred to a 96 well flat-bottom plate (VWR 3596). Next 15 μl Neutralizing Cocktail (# of samples×(10 μl 10N NaOH+5 μl 1M Tris Base) can be added to each well, and after mixing, 5 μl of this can be transferred to another 96 well plate with 100 μl 50 mM Tris base (pH 9.6) in each well. Samples can be dried overnight. The wells can be then washed with 200 μl ELISA wash buffer (PBS with 20 mM Tris pH 7.5, 0.05% Tween 20) 5 times and blocked with 200 μl blocking buffer (PBS with 20 mM Tris pH 7.5, 0.05% Tween 20, 3.5% Dry milk, 1.5% BSA. pH to 7.5 after preparation) for 1 hour at room temperature. Following wash and block, anti-phospho Histone H3 antibodies (Upstate USA, Inc., rabbit polyclonal) can be added at 0.5 μg/ml in block (100 μl per well) and incubated for 2 hours at room temperature. Wells can be washed again to remove unbound primary antibody and 100 μl alkaline phosphatase conjugated secondary antibodies at 0.3 mg/ml (Pierce, goat anti-rabbit IgG ([…]+L)) in block can be added for 1 hour at room temp. Wells can be washed 5 times to remove unbound secondary antibody, and washed again 3 times with PBS alone to remove detergents. Then 100 μl alkaline phosphatase substrate (Pierce 1-Step pNPP) can be added to wells. Plates can be protected from light and incubated at room temp for 1 hour. The OD can be read on Molecular Devices Vmax Kinetic Microplate Reader at 405 nm. The ratio of the OD (optical density) of a compound treated sample to the Nocodazole only treated sample (about 100% mitotic or abrogation) can be expressed in a percentage, and quantifies the percent abrogation of the checkpoint. The concentration at which a compound causes 50% abrogation of the checkpoint can be called the EC50. The raw OD values can be graphed in Excel, and an EC50 value can be generated using Kaleidograph software. Strong signal results from Nocodazole only treated cells, and equals 100% mitosis in this assay. Camptothecin+Nocodazole treated control samples have low signal, signifying no mitosis and therefore, no checkpoint abrogation. When potent CHK1 inhibitors are added to Camptothecin treated cells with Nocodazole, a high signal can be generated (generally in a dose dependent manner), due to the checkpoint abrogation activity caused by the combination treatment.

[2] = molecular target: T1, full-length human CHK1 (FL-CHK1) (Homo sapiens, UniProt O14757); test: FL-CHK1 assay (coupled spectrophotometric, Syntide-2); format: biochemical; settings: FL-CHK1, 0.15 mM ATP
T1 construct: C-terminally His-tagged full-length human CHK1 (FL-CHK1); 6xHis (C); made in house
T1 sequence (O14757 1-476): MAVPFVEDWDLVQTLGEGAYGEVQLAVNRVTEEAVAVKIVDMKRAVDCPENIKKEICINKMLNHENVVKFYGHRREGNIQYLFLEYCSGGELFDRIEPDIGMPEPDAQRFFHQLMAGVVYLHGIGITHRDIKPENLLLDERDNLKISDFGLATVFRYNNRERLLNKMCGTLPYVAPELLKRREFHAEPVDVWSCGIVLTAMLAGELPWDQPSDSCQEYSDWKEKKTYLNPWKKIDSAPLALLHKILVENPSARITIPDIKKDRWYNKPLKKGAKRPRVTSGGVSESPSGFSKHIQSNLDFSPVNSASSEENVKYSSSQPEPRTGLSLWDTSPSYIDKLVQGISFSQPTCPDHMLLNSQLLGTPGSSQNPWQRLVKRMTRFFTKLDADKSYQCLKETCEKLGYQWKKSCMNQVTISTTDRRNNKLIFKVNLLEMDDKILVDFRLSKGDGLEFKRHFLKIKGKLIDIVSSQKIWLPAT
Excerpt: C-terminally His-tagged full-length human CHK1 (FL-CHK1) was expressed using the baculovirus/insect cell system. It contains 6 histidine residues (6 x His-tag) at the C-terminus of the 476 amino acid human CHK1. The protein was purified by conventional chromatographic techniques.
The production of ADP from ATP that accompanies phosphoryl transfer to the synthetic substrate peptide Syntide-2 (PLARTLSVAGLPGKK) was coupled to oxidation of NADH using phosphoenolpyruvate (PEP) through the actions of pyruvate kinase (PK) and lactic dehydrogenase (LDH). The oxidation of NADH was monitored by following the decrease of absorbance at 340 nm (ε340=6.22 cm^−1 mM^−1) using a HP8452 spectrophotometer. Typical reaction solutions contained: […] PEP; 0.15 mM NADH; 28 units of LDH/mL; 16 units of PK/mL; 3 mM DTT; 0.125 mM Syntide-2; 0.15 mM ATP; 25 mM MgCl2 in 50 mM TRIS, pH 7.5; and 400 mM NaCl. Assays were initiated with 10 nM of FL-CHK1. Ki values were determined by measuring initial enzyme activity in the presence of varying concentrations of test compounds. The data were analyzed using Enzyme Kinetic and Kaleidagraph software. […]

## Oc1ccc(-c2ccc(-c3cc(Nc4ccc(CNCC5CC5)nc4)[nH]n3)cc2)c(O)c1 [Example 23, 4′-{5-[(6-{[(cyclopropylmethyl)amino]methyl}pyridin-3-yl)amino]-1H-pyrazol-3-yl}-1,1′-biphenyl-2,4-diol]
[1]
  EC50: 165 nM
[2]
  Ki: 1 to 10 nM
